The results in this text go back to PMC5218480 (PLoS ONE, 2017).

The assay has as its system MV-4-11 cells. The experiment in a line: Gene expression microarray analysis (Affymetrix PrimeView) and GSEA. The class given is cell-based, human. Further details: RFU PODN (11730768_x_at) / Fold change /veh PODN (11730768_x_at) / RFU LINC00158 (11744669_a_at) / Fold change /veh LINC00158 (11744669_a_at) / RFU DUSP10 (11751237_a_at) / Fold change /veh DUSP10 (11751237_a_at) / RFU ID3 (11757404_x_at) / Fold change /veh ID3 (11757404_x_at) / RFU PLEKHG5 (11737974_s_at) / Fold change /veh PLEKHG5 (11737974_s_at) / RFU LRRC4B (11730491_at) / Fold change /veh LRRC4B (11730491_at) / RFU GIMAP4 (11747438_a_at) / Fold change /veh GIMAP4 (11747438_a_at) / RFU KRT8 (11758183_x_at) / Fold change /veh KRT8 (11758183_x_at) / RFU CNN1 (11734310_a_at) / Fold change /veh CNN1 (11734310_a_at) / RFU VPS37D (11726825_at) / Fold change /veh VPS37D (11726825_at) / RFU C10orf10 (11716522_x_at) / Fold change /veh C10orf10 (11716522_x_at) / RFU KIR2DL2 /// KIR2DL4 /// KIR2DL5A /// KIR2DL5B /// KIR2DS1 /// KIR2DS2 /// KIR2DS3 /// KIR2DS4 /// KIR3DL3 /// KIR3DL3 /// KIR3DS1 (11738374_at) / Fold change /veh KIR2DL2 /// KIR2DL4 /// KIR2DL5A /// KIR2DL5B /// KIR2DS1 /// KIR2DS2 /// KIR2DS3 /// KIR2DS4 /// KIR3DL3 /// KIR3DL3 /// KIR3DS1 (11738374_at) / RFU C1QL1 (11718748_at) / Fold change /veh C1QL1 (11718748_at) / RFU TMPRSS4 (11747572_a_at) / Fold change /veh TMPRSS4 (11747572_a_at) / RFU HAMP (11756126_x_at) / Fold change /veh HAMP (11756126_x_at) / RFU RNFT2 (11725882_a_at) / Fold change /veh RNFT2 (11725882_a_at) / RFU NR4A2 (11747474_a_at) / Fold change /veh NR4A2 (11747474_a_at) / RFU ABCC12 (11746883_a_at) / Fold change /veh ABCC12 (11746883_a_at) / RFU TMEM136 (11760407_x_at) / Fold change /veh TMEM136 (11760407_x_at) / RFU CLDN22 /// WWC2 (11732394_at) / Fold change /veh CLDN22 /// WWC2 (11732394_at) / RFU HLA-DPB1 (11760878_x_at) / Fold change /veh HLA-DPB1 (11760878_x_at) / RFU SPINT1 (11716480_a_at) / Fold change /veh SPINT1 (11716480_a_at) / RFU GAP43 (11754022_s_at) / Fold change /veh GAP43 (11754022_s_at) / RFU A4GNT (11735810_at) / Fold change /veh A4GNT (11735810_at) / RFU PRB3 (11715151_x_at) / Fold change /veh PRB3 (11715151_x_at) / RFU TUBB4B (11761932_at) / Fold change /veh TUBB4B (11761932_at) / RFU CAPN14 (11732068_a_at) / Fold change /veh CAPN14 (11732068_a_at) / RFU TMCC2 (11721928_a_at) / Fold change /veh TMCC2 (11721928_a_at) / RFU IRGQ (11745062_a_at) / Fold change /veh IRGQ (11745062_a_at) / RFU FAM174B (11720279_a_at) / Fold change /veh FAM174B (11720279_a_at) / RFU TMPRSS4 (11748680_a_at) / Fold change /veh TMPRSS4 (11748680_a_at) / RFU FAM212B (11763350_a_at) / Fold change /veh FAM212B (11763350_a_at) / RFU PLEKHG5 (11743358_a_at) / Fold change /veh PLEKHG5 (11743358_a_at) / RFU ZSCAN30 (11745921_a_at) / Fold change /veh ZSCAN30 (11745921_a_at) / RFU CMKLR1 (11741424_a_at) / Fold change /veh CMKLR1 (11741424_a_at) / RFU LOC101060620 /// MAPK8IP1 (11723275_at) / Fold change /veh LOC101060620 /// MAPK8IP1 (11723275_at) / RFU SPTSSB (11747773_x_at) / Fold change /veh SPTSSB (11747773_x_at) / RFU PRSS12 (11739890_at) / Fold change /veh PRSS12 (11739890_at) / RFU BIN1 (11741810_x_at) / Fold change /veh BIN1 (11741810_x_at) / RFU WNT11 (11732464_a_at) / Fold change /veh WNT11 (11732464_a_at) / RFU C10orf10 (11716521_a_at) / Fold change /veh C10orf10 (11716521_a_at) / RFU C5orf56 (11738089_at) / Fold change /veh C5orf56 (11738089_at) / RFU CYB561 (11721691_x_at) / Fold change /veh CYB561 (11721691_x_at) / RFU ANKRD19P (11752326_a_at) / Fold change /veh ANKRD19P (11752326_a_at) / RFU OR2T12 /// OR2T33 /// OR2T8 (11738714_s_at) / Fold change /veh OR2T12 /// OR2T33 /// OR2T8 (11738714_s_at) / RFU VCAN (11748164_a_at) / Fold change /veh VCAN (11748164_a_at) / RFU JSRP1 (11732532_at) / Fold change /veh JSRP1 (11732532_at) / RFU KRTAP10-11 (11738290_x_at) / Fold change /veh KRTAP10-11 (11738290_x_at) / RFU MYO3A (11730013_a_at) / Fold change /veh MYO3A (11730013_a_at) / RFU EBF3 (11725865_a_at) / Fold change /veh EBF3 (11725865_a_at) / RFU CAMK2N1 (11719241_x_at) / Fold change /veh CAMK2N1 (11719241_x_at) / RFU C5orf56 (11738088_a_at) / Fold change /veh C5orf56 (11738088_a_at) / RFU OLFML3 (11715873_a_at) / Fold change /veh OLFML3 (11715873_a_at) / RFU LOC100653217 /// NTM (11731650_a_at) / Fold change /veh LOC100653217 /// NTM (11731650_a_at) / RFU MAPK11 (11762145_a_at) / Fold change /veh MAPK11 (11762145_a_at) / RFU FIZ1 (11724087_x_at) / Fold change /veh FIZ1 (11724087_x_at) / RFU OASL (11726364_x_at) / Fold change /veh OASL (11726364_x_at) / RFU SOX15 (11748057_x_at) / Fold change /veh SOX15 (11748057_x_at) / RFU CD79A (11719716_a_at) / Fold change /veh CD79A (11719716_a_at) / RFU HIST1H1D (11736915_at) / Fold change /veh HIST1H1D (11736915_at) / RFU CASKIN2 (11723855_a_at) / Fold change /veh CASKIN2 (11723855_a_at) / RFU LOC730098 (11760151_x_at) / Fold change /veh LOC730098 (11760151_x_at) / RFU OR4N2 (11742367_at) / Fold change /veh OR4N2 (11742367_at) / RFU PRRT2 (11749266_a_at) / Fold change /veh PRRT2 (11749266_a_at) / RFU SNX32 (11753110_a_at) / Fold change /veh SNX32 (11753110_a_at) / RFU CDHR5 (11726645_a_at) / Fold change /veh CDHR5 (11726645_a_at) / RFU RCAN1 (11760418_a_at) / Fold change /veh RCAN1 (11760418_a_at) / RFU FAM167A (11723789_a_at) / Fold change /veh FAM167A (11723789_a_at) / RFU FAM26E (11764081_at) / Fold change /veh FAM26E (11764081_at) / RFU ISYNA1 (11749810_s_at) / Fold change /veh ISYNA1 (11749810_s_at) / RFU ACY1 (11761880_at) / Fold change /veh ACY1 (11761880_at) / RFU 11764098_at / Fold change /veh 11764098_at / RFU SAMD14 (11745864_x_at) / Fold change /veh SAMD14 (11745864_x_at) / RFU NPB (11741838_a_at) / Fold change /veh NPB (11741838_a_at) / RFU TMPRSS6 (11731388_a_at) / Fold change /veh TMPRSS6 (11731388_a_at) / RFU KRTAP10-2 (11738614_at) / Fold change /veh KRTAP10-2 (11738614_at) / RFU ARHGAP8 /// PRR5-ARHGAP8 (11727945_x_at) / Fold change /veh ARHGAP8 /// PRR5-ARHGAP8 (11727945_x_at) / RFU KRTAP5-7 /// NADSYN1 (11734609_at) / Fold change /veh KRTAP5-7 /// NADSYN1 (11734609_at) / RFU RASL12 (11751679_a_at) / Fold change /veh RASL12 (11751679_a_at) / RFU CDKN2B (11736163_a_at) / Fold change /veh CDKN2B (11736163_a_at) / RFU PRF1 (11729649_at) / Fold change /veh PRF1 (11729649_at) / RFU, ZNF638 /// ZNF638-IT1 / Fold change vs veh, ZNF638 /// ZNF638-IT1 / RFU, PANK3 / Fold change vs veh, PANK3 / RFU, SH3YL1 / Fold change vs veh, SH3YL1 / RFU, ZEB2 / Fold change vs veh, ZEB2 / RFU, NRIP1 / Fold change vs veh, NRIP1 / RFU, PTTG1IP / Fold change vs veh, PTTG1IP / RFU, CAPN2 / Fold change vs veh, CAPN2 / RFU, MED14 / Fold change vs veh, MED14 / RFU, SNORA58 / Fold change vs veh, SNORA58 / RFU, C1orf63 / Fold change vs veh, C1orf63 / RFU, LRRFIP1 / Fold change vs veh, LRRFIP1 / RFU, NDUFAF7 / Fold change vs veh, NDUFAF7 / RFU, SLC12A2 / Fold change vs veh, SLC12A2 / RFU, IBTK / Fold change vs veh, IBTK / RFU, ESF1 / Fold change vs veh, ESF1 / Fold change vs veh, TMEM50B / RFU, TAOK1 / Fold change vs veh, TAOK1 / RFU, ACBD3 / Fold change vs veh, ACBD3 / RFU, TMA16 / Fold change vs veh, TMA16 / RFU, RWDD3 / Fold change vs veh, RWDD3 / RFU, BCAT1 / Fold change vs veh, BCAT1 / RFU, EDEM3 / Fold change vs veh, EDEM3 / RFU, TMEM33 / Fold change vs veh, TMEM33 / RFU, WDR75 / Fold change vs veh, WDR75 / RFU, AHCTF1 / Fold change vs veh, AHCTF1 / RFU, TFRC / Fold change vs veh, TFRC / RFU, ZDHHC17 / Fold change vs veh, ZDHHC17 / RFU, NOM1 / Fold change vs veh, NOM1 / RFU, ARL8B / Fold change vs veh, ARL8B / RFU, ZBTB11 / Fold change vs veh, ZBTB11 / RFU, TAMM41 / Fold change vs veh, TAMM41 / RFU, KIAA1704 /// LOC100996395 / Fold change vs veh, KIAA1704 /// LOC100996395 / RFU, ING1 / Fold change vs veh, ING1 / RFU, TRMT61B / Fold change vs veh, TRMT61B / RFU, FUBP3 / Fold change vs veh, FUBP3 / RFU, TP53 / Fold change vs veh, TP53 / RFU, TNKS2 / Fold change vs veh, TNKS2 / RFU, ZFP14 / Fold change vs veh, ZFP14 / RFU, ACTR2 / Fold change vs veh, ACTR2 / RFU, PPP3R1 / Fold change vs veh, PPP3R1 / RFU, PIK3R1 / Fold change vs veh, PIK3R1 / RFU, HNRNPA1 / Fold change vs veh, HNRNPA1 / RFU, RNF170 / Fold change vs veh, RNF170 / RFU, ZNF28 / Fold change vs veh, ZNF28 / RFU, RNGTT / Fold change vs veh, RNGTT / RFU, OGT / Fold change vs veh, OGT / RFU, BRD1 / Fold change vs veh, BRD1 / RFU, MARS / Fold change vs veh, MARS / RFU, ZNF655 / Fold change vs veh, ZNF655 / RFU, FAHD1 / Fold change vs veh, FAHD1 / RFU, BDP1 / Fold change vs veh, BDP1 / RFU, LRRCC1 / Fold change vs veh, LRRCC1 / RFU, ARID1A / Fold change vs veh, ARID1A / RFU, ZNF146 / Fold change vs veh, ZNF146 / RFU, ZNF330 / Fold change vs veh, ZNF330 / RFU, GPN3 / Fold change vs veh, GPN3 / RFU, C9orf123 / Fold change vs veh, C9orf123 / RFU, N4BP2L2 / Fold change vs veh, N4BP2L2 / RFU, ARFIP1 / Fold change vs veh, ARFIP1 / RFU, FAM179B / Fold change vs veh, FAM179B / RFU, BCL10 / Fold change vs veh, BCL10 / RFU, UHRF1BP1L / Fold change vs veh, UHRF1BP1L / RFU, BET1 / Fold change vs veh, BET1 / RFU, CNOT2 / Fold change vs veh, CNOT2 / RFU, ZNF268 / Fold change vs veh, ZNF268 / Fold change vs veh, ZNF507 / RFU, DGCR2 / Fold change vs veh, DGCR2 / RFU, WDSUB1 / Fold change vs veh, WDSUB1 / Fold change vs veh, HSP90B1 /// MIR3652 / RFU, ADSS / Fold change vs veh, ADSS / RFU, GK / Fold change vs veh, GK / RFU, ZNF148 / Fold change vs veh, ZNF148 / RFU, TAF9 / Fold change vs veh, TAF9 / RFU, SLC1A5 / Fold change vs veh, SLC1A5 / RFU, SLMO2 / Fold change vs veh, SLMO2 / RFU, ABCC4 / Fold change vs veh, ABCC4 / RFU, LOC101060439 /// RAP1B / Fold change vs veh, LOC101060439 /// RAP1B / RFU, RFX7 / Fold change vs veh, RFX7 / RFU, GTPBP10 / Fold change vs veh, GTPBP10 / RFU, CNEP1R1 / Fold change vs veh, CNEP1R1 / RFU, BIVM-ERCC5 /// ERCC5 / Fold change vs veh, BIVM-ERCC5 /// ERCC5 / RFU, ILF3 / Fold change vs veh, ILF3 / RFU 11762660_at / Fold change /veh 11762660_at / RFU VCAN (11757783_s_at) / Fold change /veh VCAN (11757783_s_at) / RFU DDX43 (11728927_at) / Fold change /veh DDX43 (11728927_at) / RFU KRT8 (11758188_x_at) / Fold change /veh KRT8 (11758188_x_at) / RFU NKD1 (11759106_at) / Fold change /veh NKD1 (11759106_at) / RFU SRD5A1 (11742802_a_at) / Fold change /veh SRD5A1 (11742802_a_at) / RFU TPSAB1 /// TPSB2 (11721975_s_at) / Fold change /veh TPSAB1 /// TPSB2 (11721975_s_at) / RFU GSTM3 (11746129_a_at) / Fold change /veh GSTM3 (11746129_a_at) / RFU IL23R (11737362_x_at) / Fold change /veh IL23R (11737362_x_at) / RFU TMEM51 (11727254_a_at) / Fold change /veh TMEM51 (11727254_a_at) / RFU PIWIL2 (11732686_x_at) / Fold change /veh PIWIL2 (11732686_x_at) / RFU ORM1 (11744905_x_at) / Fold change /veh ORM1 (11744905_x_at) / RFU CCDC152 (11743942_at) / Fold change /veh CCDC152 (11743942_at) / RFU ECM1 (11717891_a_at) / Fold change /veh ECM1 (11717891_a_at) / RFU IL23R (11748794_a_at) / Fold change /veh IL23R (11748794_a_at) / RFU TNFAIP8L3 (11732012_x_at) / Fold change /veh TNFAIP8L3 (11732012_x_at) / RFU MBOAT4 (11741988_at) / Fold change /veh MBOAT4 (11741988_at) / RFU 11764193_at / Fold change /veh 11764193_at / RFU TMEM53 (11763286_at) / Fold change /veh TMEM53 (11763286_at) / RFU MAGEB2 (11727129_at) / Fold change /veh MAGEB2 (11727129_at) / RFU TMEM200A (11744735_a_at) / Fold change /veh TMEM200A (11744735_a_at) / RFU CCDC152 (11751479_a_at) / Fold change /veh CCDC152 (11751479_a_at) / RFU FAM211A (11726209_a_at) / Fold change /veh FAM211A (11726209_a_at) / RFU RGS16 (11746705_a_at) / Fold change /veh RGS16 (11746705_a_at) / RFU VCAN (11755009_s_at) / Fold change /veh VCAN (11755009_s_at) / RFU RHOB (11743442_s_at) / Fold change /veh RHOB (11743442_s_at) / RFU RGS16 (11720943_a_at) / Fold change /veh RGS16 (11720943_a_at) / RFU RGS16 (11720944_at) / Fold change /veh RGS16 (11720944_at) / RFU, VPS4B / Fold change vs veh, VPS4B / RFU, CREB1 / Fold change vs veh, CREB1 / RFU, DNAJC13 / Fold change vs veh, DNAJC13 / RFU, GNAQ / Fold change vs veh, GNAQ / RFU, CDK5R1 / Fold change vs veh, CDK5R1 / RFU, ZRANB3 / Fold change vs veh, ZRANB3 / RFU, CUL4A / Fold change vs veh, CUL4A / RFU, CCNY / Fold change vs veh, CCNY / RFU, UFL1 / Fold change vs veh, UFL1 / RFU, COG3 / Fold change vs veh, COG3 / RFU, DIAPH2 / Fold change vs veh, DIAPH2 / RFU, SKA2 / Fold change vs veh, SKA2 / RFU, AFF3 / Fold change vs veh, AFF3 / RFU, LMF1 / Fold change vs veh, LMF1 / RFU, IPO11 / Fold change vs veh, IPO11 / RFU, DFFB / Fold change vs veh, DFFB / RFU, FOXP1 / Fold change vs veh, FOXP1 / RFU, CARD8 / Fold change vs veh, CARD8 / RFU, STRN3 / Fold change vs veh, STRN3 / RFU, ADK / Fold change vs veh, ADK / RFU, RASSF2 / Fold change vs veh, RASSF2 / RFU, WIPF1 / Fold change vs veh, WIPF1 / RFU, LARP1B / Fold change vs veh, LARP1B / RFU, RASA1 / Fold change vs veh, RASA1 / RFU, RB1 / Fold change vs veh, RB1 / RFU, PPFIA1 / Fold change vs veh, PPFIA1 / RFU, MAT2A / Fold change vs veh, MAT2A / RFU, CCT5 / Fold change vs veh, CCT5 / RFU, WDR92 / Fold change vs veh, WDR92 / RFU, CUX1 / Fold change vs veh, CUX1 / RFU, TTC7A / Fold change vs veh, TTC7A / RFU, TMEM135 / Fold change vs veh, TMEM135 / RFU, DEPTOR / Fold change vs veh, DEPTOR / RFU, CPM / Fold change vs veh, CPM / RFU, DNAJB6 / Fold change vs veh, DNAJB6 / RFU, CACNA2D3 / Fold change vs veh, CACNA2D3 / RFU, DTX4 / Fold change vs veh, DTX4 / RFU, TFCP2 / Fold change vs veh, TFCP2 / RFU, GMCL1 /// GMCL1P1 / Fold change vs veh, GMCL1 /// GMCL1P1 / RFU, AEBP2 / Fold change vs veh, AEBP2 / RFU, SNHG1 /// SNORD22 /// SNORD25 /// SNORD26 /// SNORD27 /// SNORD28 /// SNORD29 /// SNORD31 / Fold change vs veh, SNHG1 /// SNORD22 /// SNORD25 /// SNORD26 /// SNORD27 /// SNORD28 /// SNORD29 /// SNORD31 / Fold change (Aza/veh), C12orf56 (ProbeSet 11735607_a_at) / Fold change (ACY-1035/veh), C12orf56 (ProbeSet 11735607_a_at) / Fold change (Aza/veh), FGFR1OP (ProbeSet 11751329_s_at) / Fold change (ACY-1035/veh), FGFR1OP (ProbeSet 11751329_s_at) / Fold change (Aza/veh), VPS36 (ProbeSet 11739960_a_at) / Fold change (ACY-1035/veh), VPS36 (ProbeSet 11739960_a_at) / RFU SYPL1 (11715823_x_at) / Fold change /veh SYPL1 (11715823_x_at) / RFU IGFBP7 (11715501_s_at) / Fold change /veh IGFBP7 (11715501_s_at) / RFU REEP3 (11722064_at) / Fold change /veh REEP3 (11722064_at) / RFU IGLL1 (11728026_x_at) / Fold change /veh IGLL1 (11728026_x_at): dose or concentration left out as unconfirmed. Conditions: MV-4-11 cells, 48 hours.

As to `Nc1ncn([C@@H]2O[C@H](CO)[C@@H](O)[C@H]2O)c(=O)n1` [azacitidine], the “Fold change /veh REEP3 (11722064_at)” value is recorded as 0.73.
